According to patent publication US9880151B2, “Method of determining, identifying or isolating cell-penetrating peptides” (Phylogica Limited, priority 2011, dated 2018):

Columns and labels:
CHO-K1 cells [1] = experiment: Fluorescent microscopy assessment of CPP internalisation; type: cell-based, Chinese hamster; settings: 10 μM, CM and SF (FIGS. 30-32)
Description: (§1) CHO-K1 cells are seeded at 70,000 cells/slide chamber, and bEnd.3 cells are seeded at 40,000 cells/slide chamber. Cells are cultured for 24 h at 37° C. in 5% CO2, washed with PBS 1×, and FITC-labeled peptide (10 uM) is added to cells in 10% FBS (CM).
(§2) Alternatively, cells in serum-free (SF) medium are incubated for 1 h at 37° C., washed twice in PBS, fixed in 10% formaladehyde/PBS (15 min at RT), washed as before, incubated in, 300 nM DAPI/PBS solution for […] at RT, washed as before, and mounted onto slides.

[2] = tested on: bEnd.3 mouse brain endothelial cells; experiment: as above; type: cell-based; settings: 10 μM, CM and SF (FIGS. 25-28)
Description: as §1, §2

CHO-K1 cells [3] = experiment: Flow cytometry analysis of FITC-labelled peptide cell binding/uptake; type: cell-based, Chinese hamster; settings: for cellular uptake into CHO-K1: 37° C. and 4° C. (FIG. 34); for cellular uptake into CHO-K1 cells measured using FITC: FIG. 36
Description: (§3) CHO-K1 and bEnd.3 cells were seeded in 6-well plates at 5×10^5 cells/well in culture medium and incubated for 24 h at 37° C. in 5% CO2. Culture media was aspirated, and cells washed once with PBS to remove debris. Then, 1 mL of media containing 10 or 20 μM of FITC-peptide was added to wells, and plates were incubated for 1 h at 37° C. in 5% CO2. The cells were washed twice with 1×PBS, and 1 mL of 0.25% trypsin/EDTA added per well, and incubated at 37° C. for 4 min. Reactions were stopped by dilution of trypsin with 2 mL complete media. Cells were dislodged by gentle titration and transferred to flow cytometry tubes, washed twice with FACS buffer (0.5% BSA/0.01% NaN3/PBS), collected by centrifugation for 4 min at 1500 rpm, and resuspended in 0.3 mL fixing buffer solution (1% formaldehyde in PBS). Cells were filtered through gauze before reading on BD LSRII flow cytometer.
(§4) Cells were seeded in 6-well plates and then grown for 24 hours before peptide was added for 1 hour at 37° C. Cells were harvested via trypsinization, and then assayed for peptide internalization/binding by flow cytometry.
(§5) The flow cytometry procedure was initially optimized using fluorophore-labelled TAT-PYC38. Subsequently, FITC-labelled peptides from the Phase 1-Pilot and Phase 2-CPP screens were assessed at 10 μM concentrations for internalization using CHO and bEnd3 cells. Peptides that scored as positive in the cell binding/internalization assay were subjected to further analysis using different temperatures and cell lines to determine cell selectivity. The cell-binding/uptake activity of pure (>85% purity) and Pepset (purity ranges from 40-80%) peptides was also compared to determine whether peptide purity affected CPP activity.

bEnd.3 cells = experiment: as above; type: cell-based, mouse; settings: FIG. 36
Description: as §3, §4, §5

CHO or bEnd.3 cells = experiment: Live confocal microscopy screen for cell internalization, cell line not specified per result; type: cell-based; settings: for cellular uptake by confocal microscopy: 10 μM (FIG. 20)
Description: (§6) bEnd.3 and CHO-K1 cells were seeded at 3×10^4/well and 5×10^4/well respectively, on 8-well Lab-Tek H chambered coverglass slides. Slides were incubated for 24 h prior to analysis at 37° C. at 5% CO2. Wells were washed twice with medium containing 1% FBS, and 5-10 μM FITC-labeled peptide in 1% FBS media was added to wells, and cells were imaged at 30 and 60 minutes later.
(§7) Briefly, bEnd.3 and CHO cells were seeded at subconfluent density (˜50%) on 8-well chambered coverglasses, incubated for 24 hrs, washed with culture medium containing 1% FBS and then incubated with 5-30 μM of labelled peptide for 1 hr in culture media containing 1% FBS before being imaged using confocal microscopy.

[4] = tested on: primary cortical neuronal cultures; experiment: Glutamate excitotoxicity assay, neuroprotection by CPP-PYC36 fusions; type: cell-based; settings: PYC36 alone, data not shown
Description: Peptides ID 4052 (SEQ ID NO: 16; Table 10), Peptides ID 4052a (SEQ ID NO: 26; Table 10), and TAT peptide ([…]; SEQ ID NO: 28) were each produced as fusions to the neuroprotective peptide PYC36 ([…]; SEQ ID NO: 29) described in WO 2008/034161. The fusion peptides were assayed for their ability to confer survival on primary cortical neuronal cultures by glutamate excitotoxicity assay as described in Example of WO 2008/034161.

CHO-K1 cells [5] = experiment: Live confocal microscopy of FITC-labelled peptides; type: cell-based, Chinese hamster; settings: 60 minutes (FIG. 18)
Description: as §6, §7

cells = experiment: Flow cytometry optimisation with FITC-labelled PYC38 (+/-TAT); type: cell-based; settings: FITC-labelled peptide
Description: as §4, §5

endosome = settings: Sugita et al. 2008; cited from earlier work

Row | Substance | internalisation into CHO-K1 cells, fluorescent microscopy (CHO-K1 cells [1]) | internalisation into bEnd.3 cells, fluorescent microscopy [2] | cellular uptake into bEnd.3 cells measured using FITC (bEnd.3 cells) | cellular uptake into CHO-K1 cells measured using FITC (CHO-K1 cells [3]) | further results
1 | 0045 (PFLKRVPACLRLRR) [compound 0045] | evidence for internalisation of the peptide into CHO-K1 cells | evidence for internalisation of the peptide into bEnd.3 cells | – | – | cellular uptake into CHO-K1 (CHO-K1 cells [3]): high uptake
2 | 4052 (WGCCGRSSRRRRTR) [compound 4052] | – | – | high uptake | high uptake | –
3 | 5008 (PYSRPHVQLWYPNRESCRSLIRSLGP) [compound 5008] | evidence for internalisation of the peptide into CHO-K1 cells | evidence for internalisation of the peptide into bEnd.3 cells | high uptake | high uptake | –
4 | 9170 (RCGRASRCRVRWMRRRRI) [compound 9170] | evidence for internalisation of the peptide into CHO-K1 cells | evidence for internalisation of the peptide into bEnd.3 cells | high uptake | high uptake | cellular uptake into CHO-K1 (CHO-K1 cells [3]): high uptake; cellular uptake by confocal microscopy (CHO or bEnd.3 cells): evidence for cellular uptake
5 | GLQGRRRQGYQSIKP (GLQRRRQGYQSIKP) [PYC36, neuroprotective peptide described in WO 2008/034161] | – | – | – | – | neuroprotective activity following glutamate induced neural damage [4]: negligible neuroprotective activity
6 | RFRCGRRKWQIGS [Peptide ID 9072, arginine-rich TAT-like CPP from non-coding region] | – | – | – | – | uptake into CHO-K1 cells, flow cytometry curve (CHO-K1 cells [3]; 10 μM, 37° C., vs PYC38-TAT positive control (FIG. 15)): largely overlaps with that for the positive control; cellular uptake by confocal microscopy (CHO or bEnd.3 cells): evidence for cellular uptake
7 | WTISSRRRKVNRAC [Peptide ID 4063, arginine-rich TAT-like CPP from non-coding region] | – | – | – | – | uptake into CHO-K1 cells by confocal microscopy (CHO-K1 cells [5]; 10 μM peptide): evidence of the uptake; uptake into CHO-K1 cells by confocal microscopy (CHO-K1 cells [5]; 30 μM peptide): uptake
8 | rhaplarGswrGqpqqGpqrrGqlGG [PYC38, reference compound] | – | – | – | – | level of cell binding/internalization, PYC38-TAT versus PYC38 (cells): significantly lower; uptake into CHO-K1 cells by confocal microscopy (CHO-K1 cells [5]; 5 μM peptide): no detectable evidence of uptake; uptake by confocal microscopy, control peptides (CHO or bEnd.3 cells; 5-30 μM labelled peptide, 1 hr): no uptake
9 | transferrin: named in cited endosome escape study | – | – | – | – | efficiency of endosome escape (endosome): low
